# Values quoted from earlier work, collected in patent publication US4127529A, “Novel eicosapeptides, intermediates therefor and pharmaceutical compositions and methods employing said eicosapeptides” (priority 1977, dated 1978).
# Assays:
# [1] = injected directly into the brain of the rat
# [2] = tested on: brain opiate receptor sites; details: natural peptide
substance,measurement,setting,value
H-Tyr-Gly-Gly-Phe-Met-OH [methionine enkephalin],analgesic activity,[1],only weak analgesic agent of short duration
same,binding to partially purified brain opiate receptor sites,[2],binds stereo-specifically
